Source: the supplement of paper PMC11451515

System: NOMO1
Test: cell viability relative to DMSO control; higher = less cytotoxic
Conditions: 48 h
Outline: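 NOMO1 or SEM (500 cells/well) or P12-Ichikawa (1000 cells/well) leukemia cells were adapted for at least four passages in each medium. They were seeded in 1536-well plates (5 μl) and pin-dosed with library compounds in DMSO over an 11-point threefold series, 47 μM to 0.79 nM. CellTiter-Glo One luminescence was read after 48 h at 37°C. Viability is the per-plate percentage relative to DMSO wells, with cell-free wells as background.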

[1] = HPLM + 10% dialyzed FBS, 0.000781 µM
[2] = HPLM + 10% dialyzed FBS, 0.00234 µM
[3] = HPLM + 10% dialyzed FBS, 0.00702 µM
[4] = HPLM + 10% dialyzed FBS, 0.0211 µM
[5] = HPLM + 10% dialyzed FBS, 0.0632 µM
[6] = HPLM + 10% dialyzed FBS, 0.19 µM
[7] = HPLM + 10% dialyzed FBS, 0.569 µM
[8] = HPLM + 10% dialyzed FBS, 1.71 µM
[9] = HPLM + 10% dialyzed FBS, 5.12 µM
[10] = HPLM + 10% dialyzed FBS, 15.4 µM
[11] = HPLM + 10% dialyzed FBS, 46.1 µM
[12] = RPMI 5 mM glucose + 10% FBS, 0.000781 µM
[13] = RPMI 5 mM glucose + 10% FBS, 0.00234 µM
[14] = RPMI 5 mM glucose + 10% FBS, 0.00702 µM
[15] = RPMI 5 mM glucose + 10% FBS, 0.0211 µM
[16] = RPMI 5 mM glucose + 10% FBS, 0.0632 µM
[17] = RPMI 5 mM glucose + 10% FBS, 0.19 µM
[18] = RPMI 5 mM glucose + 10% FBS, 0.569 µM
[19] = RPMI 5 mM glucose + 10% FBS, 1.71 µM
[20] = RPMI 5 mM glucose + 10% FBS, 5.12 µM
[21] = RPMI 5 mM glucose + 10% FBS, 15.4 µM
[22] = RPMI 5 mM glucose + 10% FBS, 46.1 µM
[23] = RPMI 5 mM glucose + 10% dialyzed FBS, 0.000781 µM
[24] = RPMI 5 mM glucose + 10% dialyzed FBS, 0.00234 µM
[25] = RPMI 5 mM glucose + 10% dialyzed FBS, 0.00702 µM
[26] = RPMI 5 mM glucose + 10% dialyzed FBS, 0.0211 µM
[27] = RPMI 5 mM glucose + 10% dialyzed FBS, 0.0632 µM
[28] = RPMI 5 mM glucose + 10% dialyzed FBS, 0.19 µM
[29] = RPMI 5 mM glucose + 10% dialyzed FBS, 0.569 µM
[30] = RPMI 5 mM glucose + 10% dialyzed FBS, 1.71 µM
[31] = RPMI 5 mM glucose + 10% dialyzed FBS, 5.12 µM
[32] = RPMI 5 mM glucose + 10% dialyzed FBS, 15.4 µM
[33] = RPMI 5 mM glucose + 10% dialyzed FBS, 46.1 µM

Compound | cell viability [1] | cell viability [2] | cell viability [3] | cell viability [4] | cell viability [5] | cell viability [6] | cell viability [7] | cell viability [8] | cell viability [9] | cell viability [10] | cell viability [11] | cell viability [12] | cell viability [13] | cell viability [14] | cell viability [15] | cell viability [16] | cell viability [17] | cell viability [18] | cell viability [19] | cell viability [20] | cell viability [21] | cell viability [22] | cell viability [23] | cell viability [24] | cell viability [25] | cell viability [26] | cell viability [27] | cell viability [28] | cell viability [29] | cell viability [30] | cell viability [31] | cell viability [32] | cell viability [33]
C[C@]\1(CCS\C(=N1)N)C2=CC(=C(F)C=C2F)C3=CN=CN=C3 | 95.4% | 106% | 103% | 95.2% | 118% | 112% | 98.2% | 91.3% | 38.1% | 25% | 3.54% | 105% | 107% | 101% | 100% | 98% | 101% | 100% | 60.6% | 20.3% | 20.1% | 15% | 80.4% | 107% | 98.5% | 103% | 109% | 106% | 100% | 96.2% | 26.4% | 19.8% | 22.5%
Clc1ccc(C2(c3ccc(-c4cn[nH]c4)cc3)CCNCC2)cc1 | 80.5% | 101% | 111% | 100% | 100% | 98.2% | 96.6% | 91.9% | 69.9% | 63.3% | 62.7% | 80.2% | 81.3% | 86.4% | 83.8% | 90.8% | 89.2% | 98.9% | 77.9% | 77.6% | 65.6% | 55.3% | 86.7% | 99.2% | 83.4% | 93.5% | 99% | 103% | 81.4% | 72.2% | 70.3% | 59.9% | 53.7%
COc1cc2nccc(Oc3ccc(NC(=O)C4(C(=O)Nc5ccc(F)cc5)CC4)cc3)c2cc1OC | 113% | 114% | 112% | 116% | 94.2% | 101% | 116% | 104% | 93.7% | 69.8% | 32.3% | 95.6% | 124% | 101% | 114% | 103% | 104% | 95.1% | 107% | 96.2% | 102% | 64.8% | 102% | 99.2% | 110% | 107% | 111% | 98.2% | 109% | 98% | 95.5% | 71.7% | 47.1%
CC(C)(C)OC(=O)CN(Cc1ccc(Cl)cc1)Cc1ccc([N+](=O)[O-])s1 | 109% | 95.6% | 107% | 96.8% | 101% | 99.6% | 91.1% | 87.5% | 92.7% | 75.3% | 40.7% | 88.9% | 98.6% | 95.4% | 87% | 93.5% | 105% | 96.3% | 92.9% | 89.7% | 81.3% | 66.5% | 107% | 97.7% | 95.7% | 96.6% | 107% | 94% | 103% | 102% | 95.5% | 87% | 80.1%
NC(=O)c1ccc(-c2nc(-c3ccc4c(c3)OCCO4)c(-c3ccccn3)[nH]2)cc1 | – | – | – | – | – | – | – | – | – | – | – | 105% | 104% | 104% | 106% | 118% | 119% | 121% | 114% | 122% | 107% | 114% | 121% | 119% | 119% | 118% | 134% | 113% | 131% | 125% | 114% | 116% | 119%
CCNC(=O)C[C@@H]1\N=C(C2=CC=C(Cl)C=C2)/C3=C(C=CC(=C3)OC)[N]4C(=NN=C14)C | 121% | 130% | 123% | 121% | 114% | 120% | 107% | 84.8% | 68.5% | 29% | 15% | 108% | 118% | 103% | 114% | 121% | 105% | 104% | 90.2% | 76.1% | 26.7% | 6.87% | 106% | 116% | 117% | 109% | 114% | 112% | 98% | 89.7% | 72.4% | 28.4% | 9.69%
CCCCN(CCCC)CCC(O)c1cc2c(Cl)cc(Cl)cc2c2cc(C(F)(F)F)ccc12 (stereo not given) | 115% | 115% | 115% | 124% | 119% | 138% | 134% | 121% | 131% | 126% | 123% | 117% | 111% | 119% | 107% | 106% | 126% | 128% | 121% | 121% | 121% | 115% | 116% | 109% | 121% | 126% | 121% | 115% | 135% | 116% | 118% | 122% | 116%
Cc1ccc(NC(=O)c2ccc(CN3CCN(C)CC3)cc2)cc1Nc1nccc(-c2cccnc2)n1 | 95.2% | 105% | 114% | 116% | 110% | 116% | 105% | 122% | 104% | 95.4% | 109% | 90.6% | 103% | 92.3% | 112% | 120% | 99.6% | 114% | 111% | 104% | 103% | 103% | 96.2% | 100% | 111% | 101% | 105% | 103% | 110% | 94% | 115% | 104% | 117%
CN(N=O)C(=O)N[C@H]1C(O)OC(CO)[C@@H](O)[C@@H]1O (stereo not given in full) | 82.7% | 89.7% | 98.6% | 95.7% | 98.6% | 82.6% | 90.2% | 85% | 83.1% | 93.1% | 88.4% | 77.7% | 79.6% | 82.4% | 80.6% | 81.3% | 90.3% | 85.7% | 73.7% | 81.5% | 88% | 79.5% | 69.3% | 78.8% | 74.3% | 75.5% | 84.3% | 75.6% | 81.2% | 82.7% | 81.4% | 86% | 72.4%
CC[C@]1(O)C[C@H]2CN(CCC3=C([NH]C4=C3C=CC=C4)[C@@](C2)(C(=O)OC)C5=CC6=C(C=C5OC)N(C=O)[C@H]7[C@](O)([C@H](OC(C)=O)[C@]8(CC)\C=C/C[N@@]9CC[C@]67[C@H]89)C(=O)OC)C1 | 119% | 117% | 127% | 110% | 35.3% | 34.7% | 43.2% | 47% | 47.1% | 50.9% | 41.6% | 120% | 118% | 127% | 116% | 38.9% | 24.4% | 23% | 30.7% | 28.6% | 30.4% | 25.8% | – | – | – | – | – | – | – | – | – | – | –
C[C@@H]1CC[C@@]2(OC1)O[C@H]3C[C@H]4[C@@H]5C/C=C6/C[C@H](CC[C@]6(C)[C@H]5CC[C@]4(C)[C@H]3[C@@H]2C)O[C@@H]7O[C@H](CO)[C@@H](O[C@@H]8O[C@@H](C)[C@H](O)[C@@H](O)[C@H]8O)[C@H](O)[C@H]7O[C@@H]9O[C@@H](C)[C@H](O)[C@@H](O)[C@H]9O | 108% | 122% | 122% | 127% | 142% | 136% | 141% | 152% | 132% | 124% | 8.71% | – | – | – | – | – | – | – | – | – | – | – | – | – | – | – | – | – | – | – | – | – | –
Nc1nc(-c2nn(Cc3ccccc3F)c3ncccc23)nc(N)c1N1CCOCC1 | 75.2% | 103% | 115% | 102% | 119% | 122% | 122% | 122% | 130% | 112% | 92.1% | 88.5% | 93.8% | 106% | 107% | 110% | 115% | 113% | 120% | 104% | 112% | 113% | 96.3% | 107% | 107% | 110% | 123% | 106% | 111% | 116% | 108% | 121% | 110%
COc1cc2c(Nc3ccc(NC(=O)c4ccccc4)cc3)ncnc2cc1OCCCN1CCOCC1 | 122% | 124% | 128% | 126% | 137% | 133% | 144% | 122% | 103% | 114% | 115% | – | – | – | – | – | – | – | – | – | – | – | – | – | – | – | – | – | – | – | – | – | –
CO/N=C(/C(=O)N[C@@H]1C(=O)N2C(C(=O)O)=C(Cn3ccc(=N)n3CCO)CS[C@H]12)c1csc(N)n1 | 104% | 115% | 131% | 136% | 130% | 116% | 120% | 130% | 137% | 133% | 166% | – | – | – | – | – | – | – | – | – | – | – | 112% | 117% | 129% | 133% | 138% | 140% | 130% | 123% | 153% | 138% | 134%
